Columns and labels:
[1] = target: T1, SOS1 catalytic domain (residues 564-1049) (Homo sapiens, UniProt Q07889); assay: Mode of Action Assay: inhibition of SOS1 nucleotide exchange activity (SOS1 TR-FRET IC50 Assay)
T1 sequence (Q07889 564-1049): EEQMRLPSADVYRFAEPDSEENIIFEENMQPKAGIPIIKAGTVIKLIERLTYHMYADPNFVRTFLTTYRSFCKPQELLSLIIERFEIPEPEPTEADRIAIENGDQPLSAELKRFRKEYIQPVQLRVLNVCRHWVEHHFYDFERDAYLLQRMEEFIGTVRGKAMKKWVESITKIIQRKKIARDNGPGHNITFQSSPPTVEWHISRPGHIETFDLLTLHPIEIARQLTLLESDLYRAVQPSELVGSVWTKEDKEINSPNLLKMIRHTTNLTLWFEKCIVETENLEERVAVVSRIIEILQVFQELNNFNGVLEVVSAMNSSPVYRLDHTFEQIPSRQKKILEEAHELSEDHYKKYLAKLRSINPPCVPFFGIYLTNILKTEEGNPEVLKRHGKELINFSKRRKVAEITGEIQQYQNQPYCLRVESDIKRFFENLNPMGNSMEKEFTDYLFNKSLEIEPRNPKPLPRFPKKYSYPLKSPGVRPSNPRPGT

[2] = target: T1, SOS1 catalytic domain (residues 564-1049); assay: Potency Assay: binding affinity to SOS1 using Surface Plasmon Resonance (SPR); set-up: SOS1 catalytic domain (residues 564-1049) immobilized on a sensor chip; conditions: immobilized SOS1 catalytic domain (residues 564-1049), read-out: SOS1 SPR Equilibrium Kd
In short: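 Avi-tagged SOS1 catalytic domain captured on streptavidin chip (~6000 RU) in 0.01 M HEPES, 0.15 M NaCl, 0.05% P20. Compound dilution series flowed at 50 μL/min for association, then buffer for dissociation, with double reference subtraction. Kd derived from end-of-association binding response plotted against concentration.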

[3] = test system: PC-9 cells (EGFR Ex19Del); assay: Potency Assay: pERK (SOS1 pERK IC50 Assay, AlphaLISA SureFire Ultra p-ERK1/2); assay type: cell-based; conditions: Homo sapiens; PC-9 cells (EGFR Ex19Del), 1 hour incubation, AlphaLISA p-ERK1/2; read-out: SOS1 pERK IC50
In short: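 PC-9 (EGFR Ex19Del) cells plated overnight, then treated 1 h at 37° C. with 10-point 3-fold dilutions (top 10 μM final) in duplicate. Lysate pERK1/2 measured by AlphaLISA SureFire Ultra; IC50 from 4-parameter sigmoidal fit.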

Row | IC50 [1] [nM] | Kd [2] [nM] | IC50 [3] [nM] | SMILES
1 | < 1000 | < 400 | < 1000 | C[C@@H](Nc1nc(Cl)nc2c1CN(C(=O)N1C[C@H]3COC[C@H]3C1)C2)c1cccc(C(F)F)c1F [Example 410]
2 | < 1000 | < 400 | < 1000 | C[C@@H](Nc1nc(Cl)nc2c1CN(C(=O)N1CCOC(F)(F)C1)C2)c1cccc(C(F)F)c1F [Example 411]
3 | < 1000 | < 400 | < 1000 | C[C@@H](Nc1nc(Cl)nc2c1CN(C(=O)N1C[C@@H]3C[C@H]1CN3C)C2)c1cccc(C(F)F)c1F [Example 412]
4 | < 1000 | < 400 | < 1000 | C[C@@H](Nc1nc(Cl)nc2c1CN(C(=O)N1CCCC13CCN(C)C3)C2)c1cccc(C(F)F)c1F (stereo partly drawn) [Example 413]
5 | < 1000 | < 400 | < 1000 | C[C@@H](Nc1nc(Cl)nc2c1CN(C(=O)N1C[C@H]3CN(C)C[C@H]3C1)C2)c1cccc(C(F)F)c1F [Example 414]
6 | < 1000 | < 400 | < 1000 | C[C@@H](Nc1nc(Cl)nc2c1CN(C(=O)N1CC3CCC1CN3C)C2)c1cccc(C(F)F)c1F (stereo partly drawn) [Example 415]
7 | < 1000 | < 400 | < 1000 | C[C@@H](Nc1nc(Cl)nc2c1CN(C(=O)N1C[C@H]3C[C@@H]1CN3C)C2)c1cccc(C(F)F)c1F [Example 416]
8 | < 1000 | < 400 | < 1000 | C[C@@H](Nc1nc(Cl)nc2c1CN(C(=O)N1CCN(C)C(c3ccncc3)C1)C2)c1cccc(C(F)F)c1F (stereo partly drawn) [Example 417]
9 | < 1000 | < 400 | < 1000 | C[C@@H](Nc1nc(Cl)nc2c1CN(C(=O)N1CCN(C)C(C(F)(F)F)C1)C2)c1cccc(C(F)F)c1F (stereo partly drawn) [Example 418]
10 | < 1000 | < 400 | < 1000 | C[C@@H](Nc1nc(Cl)nc2c1CN(C(=O)N1CCN(C)CC(F)(F)C1)C2)c1cccc(C(F)F)c1F [Example 419]
11 | < 1000 | < 400 | < 1000 | C[C@@H](Nc1nc(Cl)nc2c1CN(C(=O)N1CC3CC1CN3C1COC1)C2)c1cccc(C(F)F)c1F (stereo partly drawn) [Example 421]
12 | < 1000 | < 400 | > 1000 | C[C@@H]1OCC2(CCN(C(=O)N3Cc4nc(Cl)nc(N[C@H](C)c5cccc(C(F)F)c5F)c4C3)CC2)[C@@H]1N [Example 424]
13 | < 1000 | < 400 | < 1000 | C[C@@H](Nc1nc(Cl)nc2c1CN(C(=O)N1CCN(C)CC1)C2)c1cccc(C(F)F)c1F [Example 430]
14 | < 1000 | < 400 | < 1000 | C[C@@H](Nc1nc(Cl)nc2c1CC(N1CC3(COC3)C1)CC2)c1cc(N)cc(C(F)(F)F)c1 (stereo partly drawn) [Example 433]
15 | < 1000 | < 400 | < 1000 | C[C@@H](Nc1nc(Cl)nc2c1CC(N1CCN(C3CC3)CC1)CC2)c1cccc(C(F)(F)CO)c1 (stereo partly drawn) [Example 434]
16 | < 1000 | < 400 | < 1000 | C[C@@H](Nc1nc(Cl)nc2c1C[C@@H](N1CCOCC1)CC2)c1cccc(C(F)(F)CO)c1 [Example 436]
17 | < 1000 | < 400 | < 1000 | C[C@@H](Nc1nc(Cl)nc2c1C[C@H](N1CCOCC1)CC2)c1cccc(C(F)(F)CO)c1 [Example 437]

Row | IC50 [1] [nM] | Kd [2] [nM] | IC50 [3] [nM] | SMILES
18 | < 1000 | < 400 | < 1000 | C[C@@H](Nc1nc(Cl)nc2c1CC(N1CC3(COC3)C1)CC2)c1cccc(C(F)(F)CO)c1 (stereo partly drawn) [Example 438]
19 | < 1000 | < 400 | < 1000 | C[C@@H](Nc1ncnc2c1CC(N1CC3(COC3)C1)CC2)c1cccc(C(F)(F)CO)c1 (stereo partly drawn) [Example 439]
20 | < 1000 | < 400 | < 1000 | C[C@@H](Nc1nc(Cl)nc2c1C[C@@H](N1CCOCC1)CC2)c1cccc(C(F)F)c1F [Example 440]
21 | < 1000 | < 400 | > 1000 | C[C@@H](Nc1ncnc2c1CC(N1CC3(COC3)C1)CC2)c1cccc(C(F)F)c1F (stereo partly drawn) [Example 442]
22 | < 1000 | < 400 | > 1000 | COC1CN([C@H]2CCc3ncnc(N[C@H](C)c4cccc(C(F)F)c4F)c3C2)C1 [Example 444]
23 | < 1000 | > 400 | > 1000 | Cc1nc(N[C@H](C)c2cccc(C(F)F)c2F)c2c(n1)N(C)C(=O)N(C1CCN(C)CC1)C2 [Example 445, (R)-5-((1-(3-(difluoromethyl)-2-fluorophenyl)ethyl)amino)-1,7-dimethyl-3-(1-methylpiperidin-4-yl)-3,4-dihydropyrimido[4,5-d]pyrimidin-2(1H)-one]
24 | < 1000 | < 400 | > 1000 | C[C@@H](Nc1nc(C2CNC2)nc2c1CN(C(=O)N1CCOCC1)C2)c1cccc(C(F)F)c1F [Example 446, [2-(azetidin-3-yl)-4-[[(1R)-1-[3-(difluoromethyl)-2-fluoro-phenyl]ethyl]amino]-5,7-dihydropyrrolo[3,4-d]pyrimidin-6-yl]-morpholino-methanone]
25 | < 1000 | < 400 | > 1000 | C[C@@H](Nc1nc(C2CN(C)C2)nc2c1CN(C(=O)N1CCOCC1)C2)c1cccc(C(F)F)c1F [Example 447, (R)-(4-((1-(3-(difluoromethyl)-2-fluorophenyl)ethyl)amino)-2-(1-methylazetidin-3-yl)-5,7-dihydro-6H-pyrrolo[3,4-d]pyrimidin-6-yl)(morpholino)methanone]
26 | < 1000 | < 400 | > 1000 | COCC1(S(=O)(=O)N2CCc3nc(Cl)nc(N[C@H](C)c4cc(N)cc(C(F)(F)F)c4)c3C2)CCC1 [Example 448, N-[(1R)-1-[3-amino-5-(trifluoromethyl)phenyl]ethyl]-2-chloro-6-{[1-(methoxymethyl)cyclobutyl]sulfonyl}-5H,6H,7H,8H-pyrido[4,3-d]pyrimidin-4-amine]
27 | < 1000 | < 400 | < 1000 | C[C@@H](Nc1nc(Cl)nc2c1CN(S(=O)(=O)C1CCOC1)CC2)c1cc(N)cc(C(F)(F)F)c1 (stereo partly drawn) [Example 449]
28 | < 1000 | < 400 | < 1000 | C[C@@H](Nc1nc(Cl)nc2c1CN(S(=O)(=O)C1CCNCC1)CC2)c1cc(N)cc(C(F)(F)F)c1 [Example 450]
29 | < 1000 | < 400 | < 1000 | C[C@@H](Nc1nc(Cl)nc2c1CN(S(=O)(=O)C1CNC1)CC2)c1cc(N)cc(C(F)(F)F)c1 [Example 451]
30 | < 1000 | < 400 | < 1000 | C[C@@H](Nc1nc(Cl)nc2c1CN(S(=O)(=O)C1CC1)CC2)c1cc(N)cc(C(F)(F)F)c1 [Example 452]
31 | < 1000 | < 400 | < 1000 | C[C@@H](Nc1nc(Cl)nc2c1CN(S(=O)(=O)C1COC1)CC2)c1cc(N)cc(C(F)(F)F)c1 [Example 453]
32 | < 1000 | < 400 | < 1000 | COc1ccc(S(=O)(=O)N2CCc3nc(Cl)nc(N[C@H](C)c4cc(N)cc(C(F)(F)F)c4)c3C2)cc1 [Example 454]
33 | < 1000 | < 400 | < 1000 | C[C@@H](Nc1nc(Cl)nc2c1CN(S(=O)(=O)C1CCOCC1)CC2)c1cc(N)cc(C(F)(F)F)c1 [Example 455]

Row | SMILES | IC50 [1] [nM] | Kd [2] [nM] | IC50 [3] [nM]
34 | C[C@@H](Nc1nc(Cl)nc2c1CN(C(=O)N1C3COCC1COC3)C2)c1cccc(C(F)F)c1F [Example 409] | < 1000 | < 400 | < 1000
35 | C[C@@H](Nc1nc(Cl)nc2c1CN(C(=O)N1CC3CC(C1)N3C)C2)c1cccc(C(F)F)c1F [Example 420] | < 1000 | < 400 | < 1000
36 | C[C@@H](Nc1nc(Cl)nc2c1CN(C(=O)N1C3CC1CN(C1COC1)C3)C2)c1cccc(C(F)F)c1F [Example 422] | < 1000 | < 400 | < 1000
37 | C[C@@H](Nc1nc(Cl)nc2c1CN(C(=O)N1CC3CCC(C1)N3C1COC1)C2)c1cccc(C(F)F)c1F [Example 423] | < 1000 | < 400 | < 1000
38 | C[C@@H](Nc1nc(Cl)nc2c1CN(C(=O)N1CC3CCC(C1)N3C)C2)c1cccc(C(F)F)c1F [Example 429] | < 1000 | < 400 | < 1000
39 | C[C@@H](Nc1nc(Cl)nc2c1CC(N1CCOCC1)CC2)c1cccc(C(F)(F)F)c1 (stereo partly drawn) [Example 435] | < 1000 | < 400 | > 1000

Source: US20230096028A1, “BICYCLIC HETEROCYCLYL COMPOUNDS AND USES THEREOF” (Revolution Medicines, Inc., priority 2019, published 2023)
